Source: PubChem BioAssay (NCI)
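The compound was tested at five concentrations on cells cultured in 96-well plates, with a 48-hour exposure period. TGI: concentration producing complete growth inhibition.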

Legend:
Experiment in all cases: NCI-60 cell line screen, 48 h
[1] = tested on: IGROV1 ovarian
[2] = tested on: LOX IMVI melanoma
[3] = tested on: SNB-19 CNS
[4] = tested on: HCT-116 colon
[5] = tested on: MOLT-4 leukemia
[6] = tested on: UO-31 renal
[7] = tested on: OVCAR-5 ovarian
[8] = tested on: SNB-75 CNS
[9] = tested on: HT29 colon
[10] = tested on: NCI-H226 lung
[11] = tested on: EKVX NSCLC
[12] = tested on: SK-MEL-5 melanoma
[13] = tested on: UACC-62 melanoma
[14] = tested on: OVCAR-4 ovarian
[15] = tested on: CAKI-1 renal
[16] = tested on: CCRF-CEM leukemia
[17] = tested on: COLO 205 colon
[18] = tested on: T-47D breast
[19] = tested on: A549 NSCLC
[20] = tested on: SN12C renal
[21] = tested on: NCI-H23 lung
[22] = tested on: TK-10 renal
[23] = tested on: HOP-62 NSCLC
[24] = tested on: HOP-92 NSCLC
[25] = tested on: A498 renal
[26] = tested on: U251 CNS
[27] = tested on: MCF7 breast
[28] = tested on: SR leukemia
[29] = tested on: NCI-H522 lung
[30] = tested on: NCI-H460 lung
[31] = tested on: NCI/ADR-RES ovarian
[32] = tested on: SF-295 CNS
[33] = tested on: SK-OV-3 ovarian
[34] = tested on: KM12 colon
[35] = tested on: HS 578T breast
[36] = tested on: SW-620 colon
[37] = tested on: MDA-MB-231 breast
[38] = tested on: DU-145 prostate
[39] = tested on: HL-60(TB) leukemia
[40] = tested on: SF-268 CNS
[41] = tested on: K-562 leukemia
[42] = tested on: MDA-N
[43] = tested on: 786-0 renal
[44] = tested on: M14 melanoma
[45] = tested on: SF-539 CNS
[46] = tested on: OVCAR-3 ovarian
[47] = tested on: MALME-3M melanoma
[48] = tested on: SK-MEL-2 melanoma
[49] = tested on: RPMI-8226 leukemia
[50] = tested on: RXF 393 renal
[51] = tested on: UACC-257 melanoma
[52] = tested on: MDA-MB-435
[53] = tested on: PC-3 prostate
[54] = tested on: SK-MEL-28 melanoma
[55] = tested on: HCT-15 colon
[56] = tested on: ACHN renal
[57] = tested on: OVCAR-8 ovarian

## FC(F)(F)c1cccc(-c2nc3ccccc3c3c2[C@@]2(N4CCCC4)CCCC[C@@H]32)c1
[1]
  TGI: 37.4 µM
[2]
  TGI: 38.6 µM
[3]
  TGI: > 100 µM
[4]
  TGI: > 100 µM
[5]
  TGI: > 100 µM
[6]
  TGI: 48.9 µM
[7]
  TGI: > 100 µM
[8]
  TGI: > 100 µM
[9]
  TGI: > 100 µM
[10]
  TGI: > 100 µM
[11]
  TGI: > 100 µM
[12]
  TGI: 30.4 µM
[13]
  TGI: 56.3 µM
[14]
  TGI: > 100 µM
[15]
  TGI: > 100 µM
[16]
  TGI: 87.9 µM
[17]
  TGI: 30.4 µM
[18]
  TGI: > 100 µM
[19]
  TGI: > 100 µM
[20]
  TGI: > 100 µM
[21]
  TGI: > 100 µM
[22]
  TGI: 89.8 µM
[23]
  TGI: > 100 µM
[24]
  TGI: 55.2 µM
[25]
  TGI: 95.6 µM
[26]
  TGI: 71.4 µM
[27]
  TGI: 62.8 µM
[28]
  TGI: > 100 µM
[29]
  TGI: 31.8 µM
[30]
  TGI: > 100 µM
[31]
  TGI: > 100 µM
[32]
  TGI: 74.7 µM
[33]
  TGI: > 100 µM
[34]
  TGI: > 100 µM
[35]
  TGI: > 100 µM
[36]
  TGI: > 100 µM
[37]
  TGI: 49.3 µM
[38]
  TGI: > 100 µM
[39]
  TGI: 71.6 µM
[40]
  TGI: > 100 µM
[41]
  TGI: > 100 µM
[42]
  TGI: > 100 µM
[43]
  TGI: > 100 µM
[44]
  TGI: > 100 µM
[45]
  TGI: > 100 µM
[46]
  TGI: > 100 µM
[47]
  TGI: > 100 µM
[48]
  TGI: 41.3 µM
[49]
  TGI: 41.4 µM
[50]
  TGI: > 100 µM
[51]
  TGI: > 100 µM
[52]
  TGI: 59.3 µM
[53]
  TGI: > 100 µM

## COc1cc2c(cc1OC)C1(COc3cc(O)c(O)c(O)c3C1=O)C2 (stereo not drawn)
[1]
  TGI: > 50 µM
[2]
  TGI: > 50 µM
[3]
  TGI: > 50 µM
[4]
  TGI: > 50 µM
[54]
  TGI: > 50 µM
[5]
  TGI: > 50 µM
[6]
  TGI: > 50 µM
[7]
  TGI: > 50 µM
[8]
  TGI: > 50 µM
[9]
  TGI: > 50 µM
[10]
  TGI: > 50 µM
[12]
  TGI: > 50 µM
[13]
  TGI: > 50 µM
[14]
  TGI: > 50 µM
[15]
  TGI: > 50 µM
[16]
  TGI: > 50 µM
[17]
  TGI: > 50 µM
[18]
  TGI: > 50 µM
[19]
  TGI: > 50 µM
[20]
  TGI: > 50 µM
[21]
  TGI: > 50 µM
[22]
  TGI: > 50 µM
[55]
  TGI: > 50 µM
[23]
  TGI: > 50 µM
[25]
  TGI: > 50 µM
[26]
  TGI: > 50 µM
[27]
  TGI: 41.1 µM
[28]
  TGI: > 50 µM
[56]
  TGI: > 50 µM
[29]
  TGI: > 50 µM
[30]
  TGI: > 50 µM
[31]
  TGI: > 50 µM
[32]
  TGI: > 50 µM
[33]
  TGI: > 50 µM
[34]
  TGI: > 50 µM
[35]
  TGI: > 50 µM
[36]
  TGI: > 50 µM
[37]
  TGI: > 50 µM
[38]
  TGI: > 50 µM
[39]
  TGI: > 50 µM
[40]
  TGI: > 50 µM
[41]
  TGI: > 50 µM
[42]
  TGI: > 50 µM
[57]
  TGI: > 50 µM
[43]
  TGI: > 50 µM
[44]
  TGI: > 50 µM
[45]
  TGI: > 50 µM
[46]
  TGI: > 50 µM
[47]
  TGI: > 50 µM
[48]
  TGI: > 50 µM
[49]
  TGI: > 50 µM
[50]
  TGI: > 50 µM
[51]
  TGI: > 50 µM
[52]
  TGI: > 50 µM
[53]
  TGI: > 50 µM
